From patent publication US20110144014A1, “CYTOKINE RECEPTOR MODULATORS AND USES THEREOF” (CENTRE HOSPITALIER UNIVERSITAIRE SAINTE-JUSTINE, priority 2005, published 2011)
Where a SMILES comes first, the peptide text is derived from it. [ ]: non-standard residue; d: D form.

Target: T1, IL-1R/IL-1RacP (Rattus norvegicus, UniProt Q02955+Q63621)
T1 construct: 300 g Sprague-Dawley rats were anesthetized with isoflurane; from tissue; host or cells: whole animal (Sprague-Dawley rat)
T1 sequence (Q02955 20-576): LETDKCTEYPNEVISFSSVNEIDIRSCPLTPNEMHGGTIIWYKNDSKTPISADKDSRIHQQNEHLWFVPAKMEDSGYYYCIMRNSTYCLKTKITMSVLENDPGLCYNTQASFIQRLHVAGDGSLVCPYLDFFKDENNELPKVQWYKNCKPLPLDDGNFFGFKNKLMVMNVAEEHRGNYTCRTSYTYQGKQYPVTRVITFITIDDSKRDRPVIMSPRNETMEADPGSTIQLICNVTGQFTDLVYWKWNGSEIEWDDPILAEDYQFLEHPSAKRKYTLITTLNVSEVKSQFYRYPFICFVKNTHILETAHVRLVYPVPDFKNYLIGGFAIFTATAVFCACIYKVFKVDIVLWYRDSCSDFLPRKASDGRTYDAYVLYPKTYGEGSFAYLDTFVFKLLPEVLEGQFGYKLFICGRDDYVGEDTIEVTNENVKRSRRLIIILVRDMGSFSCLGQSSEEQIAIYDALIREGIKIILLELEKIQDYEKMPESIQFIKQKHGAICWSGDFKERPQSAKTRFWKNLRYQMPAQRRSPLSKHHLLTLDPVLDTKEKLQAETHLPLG
T1 sequence (Q63621 21-570): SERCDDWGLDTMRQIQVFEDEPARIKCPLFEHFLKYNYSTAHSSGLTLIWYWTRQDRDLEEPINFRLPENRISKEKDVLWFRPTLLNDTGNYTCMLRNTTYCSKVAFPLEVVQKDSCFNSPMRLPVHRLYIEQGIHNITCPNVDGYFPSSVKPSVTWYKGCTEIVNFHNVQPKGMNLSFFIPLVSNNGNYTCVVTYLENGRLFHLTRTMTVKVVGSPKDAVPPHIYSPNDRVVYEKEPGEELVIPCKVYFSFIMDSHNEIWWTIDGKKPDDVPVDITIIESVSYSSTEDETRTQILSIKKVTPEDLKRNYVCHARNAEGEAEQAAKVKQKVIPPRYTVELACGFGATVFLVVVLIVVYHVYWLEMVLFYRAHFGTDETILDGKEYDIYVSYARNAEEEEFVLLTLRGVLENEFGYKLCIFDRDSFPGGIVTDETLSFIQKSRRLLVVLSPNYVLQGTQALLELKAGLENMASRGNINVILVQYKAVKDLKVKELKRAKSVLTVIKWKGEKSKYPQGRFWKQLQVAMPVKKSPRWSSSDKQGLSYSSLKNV
Assay: IL-1β induced hypotension in rats
Assay type: in vivo
Protocol: The goal of the next experiment was to verify whether the identified peptides can reverse the physiological actions of the natural cytokine in vivo either by injecting them through the jugular or directly in the stomach (to verify the stability of the peptide through the digestive tractus). 300 g Sprague-Dawley rats were anesthetized with isoflurane (2.5-4%). IL-1β was injected through the jugular. Blood was taken from the carotid for further analyses before and after (10 minutes) every injection. Peptides were then injected either directly in the stomach with a catheter or in the jugular at the concentration desired. Arterial blood pressure and other physiological characteristics were monitored at all times.
The API-101 derivatives, API-101.10 (and others) were also tested to assess whether they could reverse the physiological actions of the natural ligand in vivo by injecting the derivative through the jugular or directly into the stomach (to verify the stability of the peptide through the digestive tract). […] Arterial blood pressure and heart rate were continuously monitored (Gould) while temperature and blood gases (Radiometer) were measured for routine analysis as previously described (Li et al., Am. J. Physiol. 273:R1283-R1290, 1997; Hardy et al., Pediatr. Res. 46:375-382, 1999; Najarian et al., Circ. Res. 87:1149-1156, 2000). […]

## CC(C)C[C@@H](NC(=O)[C@@H](CCC(=O)O)NC(=O)[C@H](NC(=O)[C@H](NC(=O)[C@@H](Cc1ccc(O)cc1)NC(=O)[C@H](N)CCCNC(=N)N)[C@H](C)O)C(C)C)C(=O)N[C@H](C)C(N)=O [API-101.10, RYTVELA] (H-[dR][dY][dT][dV][dE][dL][dA]-NH2; N-terminus and C-terminus assumed)
Directly into the stomach, 10^−5M
  reduction of IL-1β induced hypotension: 60%
Jugular vein injection, 10^−8M, IL-1β 5 μg/kg
  prevention of IL-1β induced hypotension: 95%
